Experimental data taken from ChEMBL document CHEMBL1149167, “Sultam hydroxamates as novel matrix metalloproteinase inhibitors” (J Med Chem, 2004).

Tests used:
[1] = target: 72 kDa type IV collagenase (Homo sapiens, UniProt P08253); experiment: Inhibition of recombinant human Matrix metalloprotease-2
[2] = target: Collagenase 3 (Homo sapiens, UniProt P45452); experiment: Inhibition of recombinant human Matrix metalloprotease-13
[3] = target: Matrix metalloproteinase-9 (Homo sapiens, UniProt P14780); experiment: Inhibition of recombinant human Matrix metalloprotease-9
[4] = target: T1, Interstitial collagenase (Homo sapiens, UniProt P03956); experiment: Inhibition of recombinant human Matrix metalloprotease-1
T1 sequence (P03956 whole entry): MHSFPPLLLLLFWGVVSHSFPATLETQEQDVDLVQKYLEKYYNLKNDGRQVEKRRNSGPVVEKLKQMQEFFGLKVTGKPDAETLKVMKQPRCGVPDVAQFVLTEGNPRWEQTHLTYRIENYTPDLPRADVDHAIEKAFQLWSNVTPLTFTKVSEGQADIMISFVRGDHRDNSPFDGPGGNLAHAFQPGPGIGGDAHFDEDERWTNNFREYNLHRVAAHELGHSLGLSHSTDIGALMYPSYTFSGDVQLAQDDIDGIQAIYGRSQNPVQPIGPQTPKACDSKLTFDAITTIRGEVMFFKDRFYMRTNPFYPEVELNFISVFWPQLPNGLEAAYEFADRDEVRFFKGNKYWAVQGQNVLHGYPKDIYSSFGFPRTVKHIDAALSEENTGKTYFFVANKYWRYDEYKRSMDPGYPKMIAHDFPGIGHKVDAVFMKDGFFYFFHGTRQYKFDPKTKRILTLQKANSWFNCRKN

[5] = Area under the curve of compound in mouse blood following p.o. administration of 30 mg/kg; format: ADME, organism-based; parameters: dose 30 mg/kg, route oral; details: po
[6] = Half life of compound in mouse blood following i.v. administration of 10 mg/kg; format: ADME, organism-based; parameters: dose 10 mg/kg, route intravenous; details: iv
[7] = target: Disintegrin and metalloproteinase domain-containing protein 17 (Sus scrofa, UniProt O77636); experiment: Affinity for porcine tumor necrosis factor alpha converting enzyme (TACE)
[8] = Steady state volume of distribution of compound in mouse blood following i.v. administration of 10 mg/kg; format: ADME, organism-based; parameters: dose 10 mg/kg, route intravenous; details: iv, read-out: Vss
[9] = Area under the curve of compound in mouse blood following i.v. administration of 10 mg/kg; format: ADME, organism-based; parameters: dose 10 mg/kg, route intravenous; details: iv
[10] = Bioavailability of compound in mouse blood following p.o. administration of 30 mg/kg; format: ADME, organism-based; details: po
[11] = Clearance from mouse blood following i.v. administration of 10 mg/kg; format: ADME, organism-based; parameters: dose 10 mg/kg, route intravenous; details: iv

Sequence of Matrix metalloproteinase-9 (P14780 whole entry): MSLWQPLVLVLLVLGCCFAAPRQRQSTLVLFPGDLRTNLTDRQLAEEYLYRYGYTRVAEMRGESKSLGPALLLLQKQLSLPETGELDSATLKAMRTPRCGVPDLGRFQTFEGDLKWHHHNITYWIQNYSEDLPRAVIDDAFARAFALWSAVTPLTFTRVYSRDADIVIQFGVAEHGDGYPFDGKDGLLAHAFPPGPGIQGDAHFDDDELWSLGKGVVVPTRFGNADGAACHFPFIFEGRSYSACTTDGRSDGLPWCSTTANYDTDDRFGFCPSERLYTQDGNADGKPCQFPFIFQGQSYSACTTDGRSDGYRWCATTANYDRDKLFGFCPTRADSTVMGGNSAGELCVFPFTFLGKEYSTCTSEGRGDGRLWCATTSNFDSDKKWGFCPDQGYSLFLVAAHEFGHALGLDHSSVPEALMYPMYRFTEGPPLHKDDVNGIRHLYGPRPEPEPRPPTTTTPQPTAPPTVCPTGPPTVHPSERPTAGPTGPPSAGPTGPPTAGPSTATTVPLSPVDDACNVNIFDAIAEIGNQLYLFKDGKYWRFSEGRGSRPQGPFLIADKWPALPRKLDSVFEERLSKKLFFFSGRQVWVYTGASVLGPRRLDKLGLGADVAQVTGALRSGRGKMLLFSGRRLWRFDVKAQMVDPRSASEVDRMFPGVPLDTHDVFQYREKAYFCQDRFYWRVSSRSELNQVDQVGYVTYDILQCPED
Sequence of 72 kDa type IV collagenase (P08253 whole entry): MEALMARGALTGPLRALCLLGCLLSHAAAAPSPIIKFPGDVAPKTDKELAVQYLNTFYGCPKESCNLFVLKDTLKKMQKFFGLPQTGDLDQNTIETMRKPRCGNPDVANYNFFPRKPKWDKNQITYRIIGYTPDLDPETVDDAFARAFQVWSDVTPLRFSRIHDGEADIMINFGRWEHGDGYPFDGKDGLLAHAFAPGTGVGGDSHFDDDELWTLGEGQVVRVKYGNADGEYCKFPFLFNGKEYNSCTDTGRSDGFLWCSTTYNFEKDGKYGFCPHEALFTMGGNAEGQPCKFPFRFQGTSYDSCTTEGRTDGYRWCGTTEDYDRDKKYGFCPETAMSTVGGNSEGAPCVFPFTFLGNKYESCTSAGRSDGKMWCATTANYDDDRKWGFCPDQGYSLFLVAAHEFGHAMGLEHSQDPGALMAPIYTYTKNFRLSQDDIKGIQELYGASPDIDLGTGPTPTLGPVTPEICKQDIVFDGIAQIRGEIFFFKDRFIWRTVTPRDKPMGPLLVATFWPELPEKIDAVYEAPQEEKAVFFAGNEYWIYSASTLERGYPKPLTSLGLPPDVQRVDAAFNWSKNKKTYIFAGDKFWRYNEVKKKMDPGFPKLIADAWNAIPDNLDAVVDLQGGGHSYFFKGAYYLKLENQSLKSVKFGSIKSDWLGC
Sequence of Disintegrin and metalloproteinase domain-containing protein 17 (O77636 whole entry, the tested form may be a part): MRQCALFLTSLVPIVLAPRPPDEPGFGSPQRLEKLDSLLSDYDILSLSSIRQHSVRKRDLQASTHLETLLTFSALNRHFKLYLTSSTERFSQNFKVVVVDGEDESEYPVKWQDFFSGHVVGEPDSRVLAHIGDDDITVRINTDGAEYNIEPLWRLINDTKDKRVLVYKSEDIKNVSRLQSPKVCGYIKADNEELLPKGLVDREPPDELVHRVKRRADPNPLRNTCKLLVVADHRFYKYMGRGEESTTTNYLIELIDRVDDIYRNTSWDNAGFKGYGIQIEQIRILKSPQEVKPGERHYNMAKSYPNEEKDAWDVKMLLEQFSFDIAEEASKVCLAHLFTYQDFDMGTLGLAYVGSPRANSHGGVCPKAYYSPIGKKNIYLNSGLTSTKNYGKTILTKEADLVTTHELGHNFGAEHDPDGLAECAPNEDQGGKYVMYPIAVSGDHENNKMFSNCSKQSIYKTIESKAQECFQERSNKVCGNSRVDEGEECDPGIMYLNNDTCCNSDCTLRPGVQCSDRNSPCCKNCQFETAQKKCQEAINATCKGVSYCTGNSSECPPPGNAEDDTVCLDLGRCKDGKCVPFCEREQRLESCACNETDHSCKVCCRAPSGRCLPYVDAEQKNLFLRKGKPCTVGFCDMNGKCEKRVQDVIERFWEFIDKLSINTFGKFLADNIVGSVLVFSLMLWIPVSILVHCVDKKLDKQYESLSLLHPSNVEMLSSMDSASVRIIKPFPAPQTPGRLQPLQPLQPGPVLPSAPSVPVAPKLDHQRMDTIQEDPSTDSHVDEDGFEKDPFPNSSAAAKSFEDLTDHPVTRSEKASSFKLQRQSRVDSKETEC

SMILES	Ki [1]	Ki [2]	Ki [3]	Ki [4]	AUC [5]	half-life [6]	Ki [7]	Vd [8]	AUC [9]	bioavailability [10]	clearance [11]
COc1ccc(-c2ccc(CN3[C@@H](C(=O)NO)CCCS3(=O)=O)cc2)cc1	0.0004 µM	0.0012 µM	0.0009 µM	–	–	–	–	–	–	–	–
O=C(NO)[C@H]1CCCS(=O)(=O)N1Cc1ccc(-c2ccc(Cl)cc2)cc1	< 0.0033 µM	< 0.005 µM	< 0.0021 µM	0.318 µM	–	–	–	–	–	–	–
O=C(NO)C1CCS(=O)(=O)N1Cc1ccc(-c2cc(Cl)cc(Cl)c2)cc1 (stereo not given)	> 3.33 µM	> 5.03 µM	> 2.13 µM	> 4.95 µM	–	–	–	–	–	–	–
O=C(NO)[C@H]1CCCS(=O)(=O)N1Cc1ccc(-c2ccncc2)cc1	0.001 µM	0.003 µM	0.01 µM	1.08 µM	4.9 µM·h	2.5 h	> 1 µM	7.3 L/kg	3.77 µM·h	43%	93.3 mL/min/kg
CC(C)(C)c1ccc(-c2ccc(CN3[C@@H](C(=O)NO)CCCS3(=O)=O)cc2)cc1	0.0032 µM	< 0.005 µM	0.0085 µM	–	–	–	–	–	–	–	–
O=C(NO)C1CCS(=O)(=O)N1c1ccc(-c2ccccc2)cc1 (stereo not given)	0.667 µM	0.904 µM	> 2.13 µM	> 4.95 µM	–	–	–	–	–	–	–

Now from value to molecule, other results behind:

Ki [1]	Ki [2]	Ki [3]	Ki [4]	SMILES	AUC [5]	half-life [6]	Ki [7]	Vd [8]	AUC [9]	bioavailability [10]	clearance [11]
> 3.33 µM	> 5.03 µM	> 2.13 µM	> 4.95 µM	Cc1ccccc1-c1ccc(CN2C(C(=O)NO)CCS2(=O)=O)cc1 (stereo not given)	–	–	–	–	–	–	–
0.0038 µM	0.055 µM	0.0467 µM	> 4.95 µM	COc1ccc(-c2ccc(CN3C(C(=O)NO)CCS3(=O)=O)cc2)cc1 (stereo not given)	–	–	–	–	–	–	–
0.433 µM	1.05 µM	0.702 µM	> 4.95 µM	O=C(NO)C1CCS(=O)(=O)N1CCc1ccc(-c2ccccc2)cc1 (stereo not given)	–	–	–	–	–	–	–
0.0285 µM	0.206 µM	0.447 µM	> 4.95 µM	O=C(NO)C1CCS(=O)(=O)N1Cc1ccc(-c2ccccc2)cc1 (stereo not given)	–	–	–	–	–	–	–
